Data from EP4310093A1, “AMINO ACID DERIVATIVE, PREPARATION METHOD THEREFOR, AND PHARMACEUTICAL COMPOSITION FOR TREATING HEPATITIS, COMPRISING SAME” (priority 2021, dated 2022).

Experiments:
[1] = system: HBV; experiment: Inhibition of intracellular HBV virus invasion, HBeAg ELISA analysis; type: cell-based; conditions: 20 µM, HepG2-NTCP cell line, HBV 3000 Geq/cell, O.D. at 450 nm
Experimental: (§1) In order to evaluate the ability to inhibit intracellular HBV virus entry (invasion), Enzyme-linked immunosorbent assay (ELISA) analysis to measure HBeAg, which is associated with high infectivity as an antigen in the HBV virus core portion, and Southern blot analysis to measure DNA of HBV were performed.
(§2) Specifically, the HepG2-NTCP cell line was cultured on a 6-well plate, incubation was performed overnight, HBV inhibitors were treated at a concentration of 20 µM, and the positive control Myrcludex-B (MyrB) was treated at a concentration of 200 nM, followed by culture for 24 hours. After HBV infection into the cells to make HBV 3000 genome equivalent per ml/cell (Geq/cell), the cell culture medium was replaced (medium changing, MC) a day after the viral infection to remove the virus unattached to cell membranes. In order to measure an amount of virus that entered the cell, medium changing (MC) was performed once more 4 days after viral infection. 2 days after replacement, HBeAg ELISA analysis was performed using a supernatant, and Southern blot analysis was performed with cell pellets.
HBeAg ELISA analysis was performed using an HBeAg ELISA kit (sanbio, Wantai HBeAg ELISA, cat#WB-2496) for the supernatant obtained by the method in Experimental Example 4-1.
First, a negative control group (Mock), positive control group (MyrB), and samples according to the present disclosure were loaded, by 50 µl each to be triplicate, onto a 96-well plate coated with capture Ab. In this case, Example 1 (LCA-ILE), Example 44 (LCA-Val), Example 52 (LCA-Tyr), Example 51 (LCA-Ser), Example 55 (LCA-Glu), Example 2 (UDCA-Ile), Example 3 (UDCA-Val), Example 25 (LCA-Val-Trp), Example 10 (DCA-Ile), Comparative Example 1 (LCA), and Comparative Example 2 (UDCA) were used as the sample.
The HRP-conjugated detection antibody was loaded into each well by 50 µl, followed by a reaction at 37°C for 30 minutes. Washing buffer (1X PBS, 0.5% Tween20) was added by 200 µl, and washing was performed 5 times. 50 µl of chromogen solution A and 50 µl of chromogen solution B were added to each well, and a reaction was carried out in the darkness at 37°C for 15 minutes. The stop solution was added to each well by 50 µl each to stop the reaction, and the amount of HBeAg was measured by measuring the absorbance (optical density, O.D.) level in the 450 nm wavelength band.

[2] = system: HBV; experiment: Inhibition of intracellular HBV virus invasion, Southern blot analysis; type: cell-based; conditions: for amount of HBeAg DNA detected compared to the negative control group (Mock): 20 µM, HepG2-NTCP cell line, HBV 3000 Geq/cell; for activity at 20 µM: Hepatitis B virus, read-out: relative replication rate of quantified HBeAg DNA to the negative control group (Mock), 20 µM, HepG2-NTCP cell line, HBV 3000 Geq/cell
Experimental: as §1, §2
For the cell pellet obtained by the method of Experimental Example 4-1, Southern blot analysis for measurement of […] DNA was performed using Example 1 (LCA-Ile), Example 44 (LCA-Val), Example 52 (LCA-Tyr), Example 51 (LCA-Ser), Example 55 (LCA-Glu), Example 2 (UDCA-Ile), Example 3 (UDCA-Val), Example 25 (LCA-Val-Trp), Example 10 (DCA-Ile), Comparative Example 1 (LCA), and Comparative Example 2 (UDCA).
First, the cell pellets were pipetted with 100 µl of HEPES lysis buffer (10 mM HEPES, 100 mM NaCl, 1 mM EDTA, 1% NP-40), placed on ice for 20 minutes, and then centrifuged with a centrifuge under the conditions at 4°C and 13000 rpm. After transferring the supernatant only to the new microtube, 4.5 µl of nuclease buffer I (10 mM CaCl2, 12 mM MgCl2, DNase 10 units) was added to carry out a reaction at 37°C for 2 hours, and 40 µl of 26% PEG solution was added, followed by a reaction on ice for 1 hour. After centrifuging with the centrifuge at 4°C and 13000 rpm for 30 minutes, and the supernatant was removed cleanly. After releasing the pellets with 100 µl of nuclease buffer II (10 mM Tris, 8 mM CaCl2, 6mM MgCl2), 287.5 µl of 0.5% SDS buffer (25 mM Tris, 10 mM EDTA, 0.5% SDS, 100 mM NaCl) was added, and 12.5 µl of 20 mg/ml proteinase K was added, followed by a reaction at 37°C for 2 hours. 400 µl of phenol-chloroform-isoamyl alcohol was added, centrifugation was performed at room temperature at 13000 rpm after voltexing, the supernatant was transferred to a new tube, 40 µl of 3 M NaOAc was added, and 800 µl of 100% ethanol was added for inverting, followed by a reaction overnight at -20°C. After performing centrifugation at 4°C and 13000 rpm for 30 minutes, 800 µl of 70% ethanol was added and mixed to the pellet obtained by removing the supernatant, centrifugation was performed at 4°C and 13000 rpm for 10 minutes, and then the supernatant was discarded. The ethanol was dried for 5 minutes to leave only the HBV DNA pellets, and then the pellets were dissolved again in 15 µl of TE buffer (10 mM Tris, 1 mM EDTA). HBV DNA samples were loaded in 1% agarose gel, and electrophoresis was performed. It was then immersed in denature buffer (0.25 N NaOH, 1 M NaCl) for 30 minutes to denature dsDNA of HBV into ssDNA. The DNA in the gel was transferred to a Nylon membrane using a transfer buffer (0.4 M NaOH), the membrane was soaked with a 2X SSC buffer (sigma, cat# 85639) for neutralization, followed by drying in air. The membrane was immersed in a church buffer (10% BSA, 0.5 M EDTA, 1 M NaPi, 20% SDS), and the radioisotopes were hybridized using a Mega prime kit (GE healthcare, RPN1607). After washing three times with washing buffer (2X SSC, 0.1% SDS), measurement was performed using radioisotope measurement equipment, and a relative replication rate (%) to the negative control group (Mock) was calculated and shown.

Compound | HBeAg absorbance level compared with Comparative Example 1 (LCA) and Comparative Example 2 (UDCA) [1] | HBeAg absorbance level compared with the negative control group (Mock) [1] | amount of HBeAg DNA detected compared to the negative control group (Mock) [2] | activity at 20 µM [2]
CC[C@@H](C)[C@H](NC(=O)CC[C@@H](C)[C@H]1CC[C@H]2[C@@H]3[C@@H](O)C[C@@H]4C[C@H](O)CC[C@]4(C)[C@H]3CC[C@]12C)C(=O)O [Example 2, (2S,3R)-2-((R)-4-((3R,5S,7S,8R,9S,10S,13R,14S,17R)-3,7-dihydroxy-10,13-dimethyl-hexadecahydro-1H-cyclopenta[a]phenanthren-17-yl)pentanamido)-3-methylpentanoic acid] | lower | relatively lower | relatively less amount | < 80%
CC(C)[C@H](NC(=O)CC[C@@H](C)[C@H]1CC[C@H]2[C@@H]3[C@@H](O)C[C@@H]4C[C@H](O)CC[C@]4(C)[C@H]3CC[C@]12C)C(=O)O [Example 3, (S)-2-((R)-4-((3R,5S,7S,8R,9S,10S,13R,14S,17R)-3,7-dihydroxy-10,13-dimethyl-hexadecahydro-1H-cyclopenta[a]phenanthren-17-yl)pentanamido)-3-methylbutanoic acid] | lower | relatively lower | relatively less amount | < 80%
CC[C@@H](C)[C@H](NC(=O)CC[C@@H](C)[C@H]1CC[C@H]2[C@@H]3CC[C@@H]4C[C@H](O)CC[C@]4(C)[C@H]3C[C@H](O)[C@]12C)C(=O)O [Example 10, (2S,3R)-2-((R)-4-((3R,5R,8R,9S,10S,12S,13R,14S,17R)-3,12-dihydroxy-10,13-dimethyl-hexadecahydro-1H-cyclopenta[a]phenanthren-17-yl)pentanamido)-3-methylpentanoic acid] | lower | relatively lower | relatively less amount | < 80%
CC(C)[C@H](NC(=O)CC[C@@H](C)[C@H]1CC[C@H]2[C@@H]3CC[C@@H]4C[C@H](O)CC[C@]4(C)[C@H]3CC[C@]12C)C(=O)N[C@@H](Cc1c[nH]c2ccccc12)C(=O)O [Example 25, (S)-2-((S)-2-((R)-4-((3R,5R,8R,9S,10S,13R,14S,17R)-3-hydroxy-10,13-dimethyl-hexadecahydro-1H-cyclopenta[a]phenanthren-17-yl)pentanamido)-3-methylbutanamido)-3-(1H-indol-3-yl)propanoic acid] | – | – | relatively less amount | –
CC(C)[C@H](NC(=O)CC[C@@H](C)[C@H]1CC[C@H]2[C@@H]3CC[C@@H]4C[C@H](O)CC[C@]4(C)[C@H]3CC[C@]12C)C(=O)O [Example 44, (S)-2-((R)-4-((3R,5R,8R,9S,10S,13R,14S,17R)-3-hydroxy-10,13-dimethyl-hexadecahydro-1H-cyclopenta[a]phenanthren-17-yl)pentanamido)-3-methylbutanoic acid] | lower | relatively lower | relatively less amount | < 80%
C[C@H](CCC(=O)N[C@@H](CO)C(=O)O)[C@H]1CC[C@H]2[C@@H]3CC[C@@H]4C[C@H](O)CC[C@]4(C)[C@H]3CC[C@]12C [Example 51, (S)-3-hydroxy-2-((R)-4-((3R,5R,8R,9S,10S,13R,14S,17R)-3-hydroxy-10,13-dimethyl-hexadecahydro-1H-cyclopenta[a]phenanthren-17-yl)pentanamido)propanoic acid] | – | relatively lower | – | –
C[C@H](CCC(=O)N[C@@H](Cc1ccc(O)cc1)C(=O)O)[C@H]1CC[C@H]2[C@@H]3CC[C@@H]4C[C@H](O)CC[C@]4(C)[C@H]3CC[C@]12C [Example 52, (S)-2-((R)-4-((3R,5R,8R,9S,10S,13R,14S,17R)-3-hydroxy-10,13-dimethyl-hexadecahydro-1H-cyclopenta[a]phenanthren-17-yl)pentanamido)-3-(4-hydroxyphenyl)propanoic acid] | – | – | relatively less amount | < 80%
C[C@H](CCC(=O)N[C@@H](CCC(=O)O)C(=O)O)[C@H]1CC[C@H]2[C@@H]3CC[C@@H]4C[C@H](O)CC[C@]4(C)[C@H]3CC[C@]12C [Example 55, (S)-2-((R)-4-((3R,5R,8R,9S,10S,13R,14S,17R)-3-hydroxy-10,13-dimethyl-hexadecahydro-1H-cyclopenta[a]phenanthren-17-yl)pentanamido)pentanedioic acid] | – | – | relatively less amount | –
